Reference: ChEMBL document CHEMBL1862790, “Optimisation of fenarimol series for the treatment of Chagas disease”
Values joined by “and” are separate entries in the source; they are usually repeats but may differ in a detail not shown here. Equal values may be shown once.

Experiments:
[1] = system: Trypanosoma cruzi; test: microbe, parasite or virus in culture; format: functional, organism-based, Tulahuen LacZ, Clone C4
[2] = DNDI: Cytotoxicity against L-6 rat myoblasts from skeletal muscle cells; details: L6 rat skeletal muscle myoblast cells
[3] = system: Trypanosoma cruzi; test: microbe, parasite or virus in culture; format: functional, Tulahuen LacZ, Clone C4
[4] = Trypanosoma cruzi, Tulahuen LacZ, Clone C4

Compound	IC50 [1, 4]	IC90 [3, 4]	IC50 [1]	IC90 [3]	IC50 [2]	IC50 ([2]; IC50)
COc1ccc(C(O)(c2cncnc2)C2CC2)cc1 (stereo not given)	20900 nM	62500 nM			> 100000 nM	
OC(c1cccnc1)(c1cccs1)c1ccccc1Cl (stereo not given)	345 nM	670 nM				> 100000 nM
O=S(=O)(c1ccc(C(F)(F)F)cc1)N1CCC(NC(c2ccc(C(F)(F)F)cc2)c2cnccn2)CC1 (stereo not given)	130 nM	290 nM				40900 nM
CC(C)C(=O)N1CCN(C(c2ccc(Cl)cc2)c2cncnc2)CC1 (stereo not given)	370 nM	940 nM				> 100000 nM
OC(c1ccc(Cl)cc1)(c1cccnc1)c1cnc(Cl)nc1 (stereo not given)			163 nM and 480 nM	339 nM and 850 nM		> 100000 nM
O=C(NC1CCN(C(c2cnccn2)c2ccc(F)cc2F)CC1)c1ccc(C(F)(F)F)cc1 (stereo not given)	460 nM	900 nM				63600 nM
OC(c1ccc(C(F)(F)F)cc1)(c1cncc(Cl)c1)c1ccc(Cl)cc1F (stereo not given)	> 1000 nM	> 1000 nM				78600 nM
CCN(CC)C(=O)NC1CCN(C(c2cncnc2)c2ccc(Cl)cc2F)CC1 (stereo not given)	50 nM	250 nM				58100 nM
CCC(=O)N1CCC(NC(c2cnccn2)c2ccc(F)cc2F)CC1 (stereo not given)	> 1000 nM	> 1000 nM				> 100000 nM
O=S(=O)(NC1CCN(C(c2ccc(C(F)(F)F)cc2)c2cnccn2)CC1)c1ccc(Cl)cc1 (stereo not given)	700 nM	> 1000 nM				18900 nM
O=S(=O)(NC(c1ccc(C(F)(F)F)cc1)c1cnccn1)c1ccccc1 (stereo not given)	3650 nM	7670 nM				> 100000 nM
Cc1noc(C)c1C(=O)N1CCC(CN(c2ccc(C(F)(F)F)cc2)c2cccnc2)CC1	86 nM	> 100 nM				72400 nM
Fc1cc(Cl)ccc1C(NC1CCN(c2nccc(C(F)(F)F)n2)CC1)c1cccnc1 (stereo not given)	22.5 nM	63 nM				55400 nM
N#Cc1ccc(C(c2cccnc2)N(C(=O)C2CC2)C2CCN(C(=O)C3CC3)CC2)cc1 (stereo not given)	> 10000 nM	> 10000 nM				> 100000 nM
OC(c1ccc(Cl)cc1)(c1ccccn1)c1ccccc1Cl (stereo not given)	27400 nM	90000 nM			> 100000 nM	
O=C(C1CCCCC1)N1CCN(C(c2ccc(Cl)cc2)c2cncnc2)CC1 (stereo not given)	320 nM	920 nM				> 100000 nM
O=C(NC1CCN(C(c2cnccn2)c2ccc(F)cc2F)CC1)C1CCCCC1 (stereo not given)	800 nM	> 1000 nM				> 100000 nM
Cc1ccsc1C(O)(c1ccc(Cl)cc1)c1cccnc1 (stereo not given)	20 nM	90 nM				74200 nM
CN(CC1CCCCC1)C(c1ccc(C(F)(F)F)cc1)c1cnccn1 (stereo not given)	480 nM	820 nM				55600 nM
CCCCc1ccc(C(O)(c2ccc(Cl)cc2)c2ccc(Cl)cc2)cn1	> 1000 nM	> 1000 nM				54700 nM

Compound	IC50 [1, 4]	IC90 [3, 4]	IC50 [1]	IC90 [3]	IC50 [2]	IC50 ([2]; IC50)
CS(=O)(=O)N1CCN(C(c2cccnc2)c2ccc(Cl)cc2F)CC1 (stereo not given)			35 nM and 46 nM	160 nM and 110 nM		> 100000 nM
OC(c1ccc(Cl)cc1)(c1cccnc1)c1cnc(Cl)s1 (stereo not given)	490 nM	> 1000 nM				> 100000 nM
OC(c1cccnc1)(c1cccc(F)c1)c1ccccc1Cl (stereo not given)	558 nM	> 1000 nM	752 nM		> 100000 nM	
CC(C)CS(=O)(=O)NC1CCN(C(c2cnccn2)c2ccc(F)cc2F)CC1 (stereo not given)	750 nM	3540 nM				> 100000 nM
OC(c1ccc(Cl)cc1)(c1cccnc1)c1cncnc1 (stereo not given)	1530 nM	59000 nM				> 100000 nM
CS(=O)(=O)N1CCN(C(c2ccc(Cl)cc2)c2cccnc2)CC1 (stereo not given)	110 nM	216 nM				> 100000 nM
O=S(=O)(C1CCCCC1)N1CCN(C(c2ccc(Cl)cc2)c2cncnc2)CC1 (stereo not given)	65 nM	850 nM				56300 nM
CC(C)CS(=O)(=O)N1CCC(NC(c2cnccn2)c2ccc(F)cc2F)CC1 (stereo not given)	560 nM	960 nM				> 100000 nM
FC(c1ccc(Cl)cc1)(c1cccnc1)c1ccccc1Cl (stereo not given)	170 nM	1000 nM				59700 nM
O=C(c1ccc(C(F)(F)F)cc1)N1CCN(C(c2ccc(Cl)cc2)c2cncnc2)CC1 (stereo not given)	150 nM	320 nM				54100 nM
Cc1ncsc1C(=O)N1CCN(C(c2cccnc2)c2ccc(C(F)(F)F)cc2F)CC1 (stereo not given)	58.5 nM	131 nM				96900 nM
OC(c1cccnc1)(c1ccsc1)c1ccccc1Cl (stereo not given)	509 nM	875 nM				> 100000 nM
Cn1cc(C(=O)NC2CCN(C(c3ccc(C(F)(F)F)cc3)c3cccnc3)CC2)c(C(F)(F)F)n1 (stereo not given)	16 nM	36.5 nM				53400 nM
O=C(Cc1ccccc1)NC1CCN(C(c2cnccn2)c2ccc(F)cc2F)CC1 (stereo not given)	700 nM	> 1000 nM				> 100000 nM
OC1CCN(C(c2ccc(C(F)(F)F)cc2)c2cnccn2)CC1 (stereo not given)	6520 nM	> 10000 nM				> 100000 nM
OC(c1cccnc1)(c1cccc(C(F)(F)F)c1)c1ccccc1Cl (stereo not given)	446 nM	749 nM			58000 nM	
O=C(C1CCCCC1)N1CCC(NC(c2ccc(C(F)(F)F)cc2)c2cnccn2)CC1 (stereo not given)	200 nM	540 nM				83800 nM
CCCCOC(Cc1ccc(Cl)nc1)c1ccc(Cl)cc1Cl (stereo not given)	> 10000 nM	> 10000 nM				91400 nM
O=C(NCC1CCCCC1)c1cccc(C(O)(c2ccc(Cl)cc2)c2cccnc2)c1 (stereo not given)	100 nM	280 nM				> 100000 nM
O=C(NC1CCN(C(c2cncnc2)c2ccc(Cl)cc2F)CC1)c1cccc(F)c1F (stereo not given)	29.5 nM	241 nM				75800 nM

Second part, led by results:

IC50 [1, 4]	IC90 [3, 4]	IC50 [1]	IC90 [3]	Compound	IC50 [2]	IC50 ([2]; IC50)
150 nM	330 nM			CC(C)Oc1ccc(C(NC(=O)c2ccc(Cl)cc2)c2cccnc2)cc1 (stereo not given)		84900 nM
115 nM	756 nM			FC(F)(F)c1ccc(C(NC2CN(c3ncccn3)C2)c2cccnc2)cc1 (stereo not given)		> 100000 nM
67 nM	218 nM	58 nM	180 nM	Cc1ncsc1C(=O)N1CCC(NC(c2ccc(C(F)(F)F)cc2)c2cccnc2)CC1 (stereo not given)		> 100000 nM
6.2 nM	11 nM			CC(C)Oc1ccc(C(NC2CCN(C(=O)OC(C)(C)C)CC2)c2cccnc2)cc1 (stereo not given)		58800 nM
314 nM	597 nM			CC(c1ccccc1)N1CCC(NC(c2cccnc2)c2ccc(Cl)cc2F)CC1 (stereo not given)		19100 nM
9 nM	65.5 nM			Fc1cc(Cl)ccc1C(NC1CCN(c2nccs2)CC1)c1cccnc1 (stereo not given)		56200 nM
370 nM	4380 nM			COc1ccc(CN2CCC(NC(c3cccnc3)c3ccc(Cl)cc3F)CC2)cc1 (stereo not given)		52000 nM
78 nM	899 nM			COc1ccc(CNC(c2ccc(Cl)cc2)c2cccnc2)cc1 (stereo not given)		> 100000 nM
8.25 nM	83.3 nM			O=C(NC1CCN(C(c2cccnc2)c2ccc(Cl)cc2F)CC1)c1ccccc1 (stereo not given)		56400 nM
239 nM	482 nM			Cn1ccnc1C(=O)NC1CCN(C(c2ccc(C#N)cc2)c2cccnc2)CC1 (stereo not given)		> 100000 nM
4.5 nM	12 nM	4 nM	15.5 nM	N#Cc1ccc(C(c2cccnc2)N2CCC(NC(=O)c3ccccc3C(F)(F)F)CC2)cc1 (stereo not given)		> 100000 nM
18 nM	31 nM			Cc1nc(C)c(C(=O)NC2CCN(C(c3ccc(C(F)(F)F)cc3)c3cccnc3)CC2)s1 (stereo not given)		55700 nM
294 nM	570 nM			O=C(c1cc[nH]n1)N1CCC(NC(c2ccc(C(F)(F)F)cc2)c2cccnc2)CC1 (stereo not given)		> 100000 nM
52 nM	85 nM			Cn1cc(CN2CCC(NC(c3ccc(Cl)cc3)c3cccnc3)CC2)c(C(F)(F)F)n1 (stereo not given)		51300 nM
20 nM		36.5 nM	46 nM and 96 nM	Cc1noc(C)c1C(=O)N1CCC(NC(c2ccc(C(F)(F)F)cc2)c2cccnc2)CC1 (stereo not given)		> 100000 nM
31 nM	94 nM			CC(C)(C)CC(=O)N1CCC(NC(c2ccc(Cl)cc2)c2cccnc2)CC1 (stereo not given)		> 100000 nM
140 nM	516 nM			Cc1noc(C)c1C(=O)N1CCC(NC(c2ccc(C(F)(F)F)cc2)c2cncs2)CC1 (stereo not given)		> 100000 nM
196 nM	688 nM			Cc1cc(C(=O)NC2CCN(C(c3ccc(C#N)cc3)c3cccnc3)CC2)on1 (stereo not given)		> 100000 nM
19.8 nM	35 nM			Fc1cc(Cl)ccc1N1CCC(NC(c2ccc(Cl)cc2)c2cccnc2)CC1 (stereo not given)		56700 nM
7.5 nM	25 nM			Fc1cc(Cl)ccc1C(NC1CCN(c2ccc(Cl)cc2)CC1)c1cccnc1 (stereo not given)		47200 nM
72 nM	250 nM			CC(C)Oc1ccc(C(NC2CCN(C(=O)Nc3ccccc3)CC2)c2cccnc2)cc1 (stereo not given)		72100 nM
134 nM	540 nM			CS(=O)(=O)N1CCC(NC(c2cccnc2)c2ccc(Cl)cc2F)CC1 (stereo not given)		> 100000 nM
3 nM	30 nM			CC(C)c1ccc(NC(=O)NC2CCN(C(c3ccc(Cl)cc3)c3cccnc3)CC2)cc1 (stereo not given)		> 100000 nM
500 nM	920 nM			CN(C)C(=O)N1CCC(NC(c2ccc(C(F)(F)F)cc2)c2cnccn2)CC1 (stereo not given)		> 100000 nM
25 nM	86 nM			O=C(Nc1ccc(Cl)cc1)N1CCC(NC(c2ccc(Cl)cc2)c2cccnc2)CC1 (stereo not given)		43400 nM
23.5 nM	402 nM			N#Cc1ccc(C(c2cccnc2)N2CCC(NC(=O)c3ccccc3F)CC2)cc1 (stereo not given)		> 100000 nM
74 nM	270 nM			CC(C)Oc1ccc(C(NC2CCN(C(=O)c3ccccc3)CC2)c2cccnc2)cc1 (stereo not given)		> 100000 nM
118 nM	732 nM			O=C(c1cccc(C(O)(c2ccc(Cl)cc2)c2cccnc2)c1)N1CCC(O)CC1 (stereo not given)		> 100000 nM
